Laboratory results: patent publication US11198673B2, “Therapeutic compounds and compositions” (eXIthera Pharmaceuticals, Inc., priority 2014, dated 2021)

Target: T1, human Factor XIa (Homo sapiens, UniProt P03951)
T1 construct: Enzyme: Factor XIa; 0.25 μM in 50% glycerol (20 μg/mL)
Test: Factor XIa enzyme inhibition assay (IC50, purified enzyme)
Type: biochemical
Settings: purified enzyme 0.25 nM, substrate 50 μM; read-out: Potency hFXIa IC50
Procedure: (§1) • Assay buffer: 20 mM Hepes, pH 7.4; 150 mM NaCl; 0.02% Tween 20 • Compounds: 10 mM stocks in DMSO • Substrate: 20 mM Glp-Pro-Arg-AMC, 25 mg/2.3 mL H2O (store at +4° C.) [Factor XIa, thrombin, and trypsin] • 20 mM Pro-Phe-Arg-AMC (Bachem I-1295), 25 mg/2.2 mL H2O (store at +4° C.) [Factor Xa] • Enzyme: Factor XIa; 0.25 μM in 50% glycerol (20 μg/mL) • Trypsin; 0.2 μM in 50% glycerol (4.8 μg/mL) • Thrombin; 0.2 μM in 50% glycerol (7.34 μg/mL) • Factor Xa; 0.2 μM in 50% glycerol (9.2 μg/mL) • These stocks are aliquoted ([…]) and stored at −20° C. Methods: • 1. Dilute the substrate to 100 μM in assay buffer (30 μL/6 mL). The enzyme is diluted to 0.5 nM just prior to use (12 μL/6 mL for Factor XIa; 15 μL/6 mL for all of the rest.) • 2. Pipette 50 μL of substrate into each well of the 96 well (12×8) microtiter plate. (Column 1 is used as the 100% activity control and receives no compound, and Column 12 is the blank and receives no enzyme.) Add an additional 46 μL to column 2. • 3. Pipette 4 μL of each compound into the appropriate well in column 2 of the plate (unknowns assayed in triplicate, standard assayed in duplicate). The final compound concentration will be 1/50th of the stock. • 4. Serially two-fold dilute the compound by mixing the sample in column 2, removing 50 μL to the next well (column 3), mix and remove to column 4, etc. until column 11. After mixing column 11, remove 50 μL and discard. • 5. Pipette 50 μL of buffer into column 12. Initiate the reaction by adding 50 μL of enzyme solution to each well of columns 1-11 as rapidly as possible. • 6. Read the plate in a spectrophotometer (SpectraMax) at 30° C., wherein each well is measured every 60 s for 30 min. For Factor Xa assays, each well is measured every 1 min for a total of 60 min. • 7. For Factor XIa assays, the compounds are assayed, in duplicate, at 3 different starting concentrations, 20, 2, and 0.2 μM; 1:10, 1:100, and 1:1000 dil'n of 10 mM stock. All data sets are combined for graphing and data fitting. • 8. Data can be used both for estimation of IC50 and for estimation of Kon.
Potential inhibitors of Factor XIa were evaluated using the following assay.
S-2366, pyroGlu-Pro-Arg-7-methylaminocourin (AMC), available from CPC Scientific, Inc., is based on the substrate pyro-Glu-Pro-Arg-pNA, available from Diapharma Group, Inc. (Columbus, Ohio), where the p-nitroanaline group is replaced with 7-methylaminocoumarin (AMC).
The final concentration of the substrate in the assay was 50 μM, and the final concentration of the enzyme was 0.25 nM. Inhibitors were tested by serial dilution over an appropriate range to yield a dose response curve for determination of the inhibitors' IC50 value. The assay mixture was read every minute for 30 minutes in order to generate progress curves. The plates were read in a Spectramax m5 Multimode Plate Reader (Molecular Devices LLC, Sunnyvale, Calif.). Dose response curves were fit to Equation 1 below in which A is the maximum inhibition, B is the minimum inhibition, C is the IC50, and D is the Hill coefficient. [(A−B)/(1+(X/C)^D)]+B (Equation 1)

T1 sequence (P03951 388-625 limits assumed): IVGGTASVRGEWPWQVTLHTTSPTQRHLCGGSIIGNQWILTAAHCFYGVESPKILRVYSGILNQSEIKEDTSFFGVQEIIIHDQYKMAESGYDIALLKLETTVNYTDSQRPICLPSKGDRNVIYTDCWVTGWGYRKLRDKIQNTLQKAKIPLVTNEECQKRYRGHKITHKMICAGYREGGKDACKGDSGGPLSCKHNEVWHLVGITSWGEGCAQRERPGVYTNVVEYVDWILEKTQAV
T1 sequence (P03951 19-387 partner limits assumed): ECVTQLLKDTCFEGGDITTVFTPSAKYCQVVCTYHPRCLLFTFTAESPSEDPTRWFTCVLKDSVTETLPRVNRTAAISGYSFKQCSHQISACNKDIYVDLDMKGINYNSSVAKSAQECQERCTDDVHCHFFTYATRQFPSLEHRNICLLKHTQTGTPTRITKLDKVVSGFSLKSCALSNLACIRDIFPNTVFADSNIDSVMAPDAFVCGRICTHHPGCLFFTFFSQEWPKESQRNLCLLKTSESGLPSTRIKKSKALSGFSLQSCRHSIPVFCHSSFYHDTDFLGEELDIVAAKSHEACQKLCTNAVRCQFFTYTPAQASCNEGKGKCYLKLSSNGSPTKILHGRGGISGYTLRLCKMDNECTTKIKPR

SMILES	IC50
C[C@@H](NC(=O)N1C(=O)[C@H](Cc2ccnc(N)c2)[C@H]1C(N)=O)c1ccccc1 [Example 26]	< 10 nM
CON=C[C@@H]1[C@@H](Cc2ccnc(N)c2)C(=O)N1C(=O)N[C@H](C)c1ccccc1 [Example 53]	10 to 100 nM
C[C@@H](NC(=O)N1C(=O)[C@H](Cc2cnc(N)s2)[C@H]1C(=O)O)c1ccccc1 [Example 24]	> 1000 nM
CCOC(=O)[C@@H]1[C@@H](Cc2ccnc(N)c2)C(=O)N1C(=O)NC(c1ccccc1)c1ccccc1 [Example 46]	10 to 100 nM
N#C[C@@H]1[C@@H](Cc2ccnc(N)c2)C(=O)N1C(=O)NC(c1ccccc1)c1ccccc1 [Example 28]	10 to 100 nM

Other lines, results leading:

IC50	SMILES
< 10 nM	COc1cccc([C@@H](C)NC(=O)N2C(=O)[C@H](Cc3ccnc(N)c3)[C@H]2C(=O)O)c1 [Example 29]
< 10 nM	C[C@@H](NC(=O)N1C(=O)[C@H](Cc2ccnc(N)c2)[C@H]1C(=O)O)c1ccc(OC(F)(F)F)cc1 [Example 168]
< 10 nM	CCOC(=O)[C@@H]1[C@@H](Cc2ccnc(N)c2)C(=O)N1C(=O)N[C@@H](C)c1ccc2c(c1)OC(F)(F)O2 [Example 166]
< 10 nM	C[C@@H](NC(=O)N1C(=O)[C@H](Cc2ccnc(N)c2)[C@H]1C(=O)O)c1ccc(F)cc1 [Example 37]

Target: T2, Factor Xa (Homo sapiens, UniProt P00742)
T2 construct: Factor Xa; 0.2 μM in 50% glycerol (9.2 μg/mL)
Test: Dose response assay for protease inhibitors: Factor Xa (FXIa fold selectivity)
Type: biochemical
Settings: fold selectivity for FXIa over Factor Xa
Procedure: as §1

T2 sequence (P00742 235-488 limits assumed): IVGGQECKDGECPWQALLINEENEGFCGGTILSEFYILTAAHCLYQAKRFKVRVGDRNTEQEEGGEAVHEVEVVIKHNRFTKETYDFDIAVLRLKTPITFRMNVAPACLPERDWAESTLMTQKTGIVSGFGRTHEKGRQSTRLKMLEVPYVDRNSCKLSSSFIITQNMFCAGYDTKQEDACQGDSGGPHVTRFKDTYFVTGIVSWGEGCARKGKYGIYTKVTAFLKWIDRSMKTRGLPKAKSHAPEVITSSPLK
T2 sequence (P00742 41-179 partner limits assumed): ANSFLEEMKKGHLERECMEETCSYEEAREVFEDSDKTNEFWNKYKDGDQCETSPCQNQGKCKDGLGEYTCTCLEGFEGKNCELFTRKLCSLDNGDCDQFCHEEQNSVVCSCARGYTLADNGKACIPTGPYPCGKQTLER

SMILES	FXIa Fold Selectivity FXa
C[C@@H](NC(=O)N1C(=O)[C@H](Cc2ccnc(N)c2)[C@H]1C(N)=O)c1ccccc1 [Example 26]	H (“H” indicates 500-1000)
CON=C[C@@H]1[C@@H](Cc2ccnc(N)c2)C(=O)N1C(=O)N[C@H](C)c1ccccc1 [Example 53]	G (“G” indicates 1-500)
CCOC(=O)[C@@H]1[C@@H](Cc2ccnc(N)c2)C(=O)N1C(=O)NC(c1ccccc1)c1ccccc1 [Example 46]	I (“I” indicates >1000)
N#C[C@@H]1[C@@H](Cc2ccnc(N)c2)C(=O)N1C(=O)NC(c1ccccc1)c1ccccc1 [Example 28]	I (“I” indicates >1000)

Results, then the molecule that gave them:

FXIa Fold Selectivity FXa	SMILES
I (“I” indicates >1000)	COc1cccc([C@@H](C)NC(=O)N2C(=O)[C@H](Cc3ccnc(N)c3)[C@H]2C(=O)O)c1 [Example 29]
I (“I” indicates >1000)	C[C@@H](NC(=O)N1C(=O)[C@H](Cc2ccnc(N)c2)[C@H]1C(=O)O)c1ccc(OC(F)(F)F)cc1 [Example 168]
H (“H” indicates 500-1000)	CCOC(=O)[C@@H]1[C@@H](Cc2ccnc(N)c2)C(=O)N1C(=O)N[C@@H](C)c1ccc2c(c1)OC(F)(F)O2 [Example 166]
H (“H” indicates 500-1000)	C[C@@H](NC(=O)N1C(=O)[C@H](Cc2ccnc(N)c2)[C@H]1C(=O)O)c1ccc(F)cc1 [Example 37]

Target: T3, Thrombin (Homo sapiens, UniProt P00734)
T3 construct: Thrombin; 0.2 μM in 50% glycerol (7.34 μg/mL)
Test: Dose response assay for protease inhibitors: thrombin (FXIa fold selectivity)
Type: biochemical
Settings: fold selectivity for FXIa over thrombin
Procedure: as §1

SMILES	FXIa Fold Selectivity Thrombin
C[C@@H](NC(=O)N1C(=O)[C@H](Cc2ccnc(N)c2)[C@H]1C(N)=O)c1ccccc1 [Example 26]	I (“I” indicates >1000)
CON=C[C@@H]1[C@@H](Cc2ccnc(N)c2)C(=O)N1C(=O)N[C@H](C)c1ccccc1 [Example 53]	G (“G” indicates 1-500)
C[C@@H](NC(=O)N1C(=O)[C@H](Cc2cnc(N)s2)[C@H]1C(=O)O)c1ccccc1 [Example 24]	G (“G” indicates 1-500)
CCOC(=O)[C@@H]1[C@@H](Cc2ccnc(N)c2)C(=O)N1C(=O)NC(c1ccccc1)c1ccccc1 [Example 46]	G (“G” indicates 1-500)
N#C[C@@H]1[C@@H](Cc2ccnc(N)c2)C(=O)N1C(=O)NC(c1ccccc1)c1ccccc1 [Example 28]	I (“I” indicates >1000)

Second part, the molecule after the results:

FXIa Fold Selectivity Thrombin	SMILES
I (“I” indicates >1000)	COc1cccc([C@@H](C)NC(=O)N2C(=O)[C@H](Cc3ccnc(N)c3)[C@H]2C(=O)O)c1 [Example 29]
I (“I” indicates >1000)	C[C@@H](NC(=O)N1C(=O)[C@H](Cc2ccnc(N)c2)[C@H]1C(=O)O)c1ccc(OC(F)(F)F)cc1 [Example 168]
I (“I” indicates >1000)	CCOC(=O)[C@@H]1[C@@H](Cc2ccnc(N)c2)C(=O)N1C(=O)N[C@@H](C)c1ccc2c(c1)OC(F)(F)O2 [Example 166]
I (“I” indicates >1000)	C[C@@H](NC(=O)N1C(=O)[C@H](Cc2ccnc(N)c2)[C@H]1C(=O)O)c1ccc(F)cc1 [Example 37]

System: Trypsin
Test: Dose response assay for protease inhibitors: trypsin (FXIa fold selectivity)
Type: biochemical
Settings: fold selectivity for FXIa over trypsin
Procedure: as §1

SMILES	FXIa Fold Selectivity Trypsin
C[C@@H](NC(=O)N1C(=O)[C@H](Cc2ccnc(N)c2)[C@H]1C(N)=O)c1ccccc1 [Example 26]	I (“I” indicates >1000)
CON=C[C@@H]1[C@@H](Cc2ccnc(N)c2)C(=O)N1C(=O)N[C@H](C)c1ccccc1 [Example 53]	G (“G” indicates 1-500)
C[C@@H](NC(=O)N1C(=O)[C@H](Cc2cnc(N)s2)[C@H]1C(=O)O)c1ccccc1 [Example 24]	G (“G” indicates 1-500)
COc1cccc([C@@H](C)NC(=O)N2C(=O)[C@H](Cc3ccnc(N)c3)[C@H]2C(=O)O)c1 [Example 29]	G (“G” indicates 1-500)
C[C@@H](NC(=O)N1C(=O)[C@H](Cc2ccnc(N)c2)[C@H]1C(=O)O)c1ccc(OC(F)(F)F)cc1 [Example 168]	I (“I” indicates >1000)
CCOC(=O)[C@@H]1[C@@H](Cc2ccnc(N)c2)C(=O)N1C(=O)N[C@@H](C)c1ccc2c(c1)OC(F)(F)O2 [Example 166]	G (“G” indicates 1-500)
CCOC(=O)[C@@H]1[C@@H](Cc2ccnc(N)c2)C(=O)N1C(=O)NC(c1ccccc1)c1ccccc1 [Example 46]	G (“G” indicates 1-500)
N#C[C@@H]1[C@@H](Cc2ccnc(N)c2)C(=O)N1C(=O)NC(c1ccccc1)c1ccccc1 [Example 28]	G (“G” indicates 1-500)
C[C@@H](NC(=O)N1C(=O)[C@H](Cc2ccnc(N)c2)[C@H]1C(=O)O)c1ccc(F)cc1 [Example 37]	I (“I” indicates >1000)

System: not listed separately
Test: β-Lactam stability in rat plasma
Type: in vitro ADME
Settings: normal rat plasma, room temperature; read-out: Rat Plasma Stability (T1/2; min)
Procedure: Normal rat plasma, stored at −80° C.
• 1. Place 6 μL of each compound into 0.5 mL microcentrifuge tubes or 96-well U-bottom, polypropylene microtiter plate • 2. Place 40 μL of acetonitrile (AcN) into 0.5 mL microcentrifuge tubes labeled 1-9 • 3. Add 114 μL of plasma to each compound • 4. Sample 10 μL of compound/plasma into AcN at 2, 10, 20, 30, 60, 90, 120, 240, and 480 min of incubation at room temperature • 5. Mix each time point after adding sample and place on ice. • 6. Centrifuge time points (12,000 rpm, 3 min), remove 15 μL of the supernatant and mix with 15 μL 0.1% TFA in a V-bottom microtiter plate. • 7. Place microtiter plate in autosampler of HPLC and analyze on Restek Pinnacle C18 column (2.1×100 mm). • 8. Generate extracted ion chromatogram for parent compound and parent compound+18 (H2O). Integrate extracted ion chromatograms (EIC) and plot % total peak area for parent and adduct versus time. Fit to a model of single phase exponential decay [Y=A0*exp(−k*x)+C]. T½ is equal to ln(2)/k.

SMILES	half-life
C[C@@H](NC(=O)N1C(=O)[C@H](Cc2ccnc(N)c2)[C@H]1C(N)=O)c1ccccc1 [Example 26]	< 1.67 h
CON=C[C@@H]1[C@@H](Cc2ccnc(N)c2)C(=O)N1C(=O)N[C@H](C)c1ccccc1 [Example 53]	< 1.67 h
N#C[C@@H]1[C@@H](Cc2ccnc(N)c2)C(=O)N1C(=O)NC(c1ccccc1)c1ccccc1 [Example 28]	< 1.67 h

More lines, now with the values ahead:

half-life	SMILES
> 1.67 h	COc1cccc([C@@H](C)NC(=O)N2C(=O)[C@H](Cc3ccnc(N)c3)[C@H]2C(=O)O)c1 [Example 29]
> 1.67 h	C[C@@H](NC(=O)N1C(=O)[C@H](Cc2ccnc(N)c2)[C@H]1C(=O)O)c1ccc(OC(F)(F)F)cc1 [Example 168]
< 1.67 h	CCOC(=O)[C@@H]1[C@@H](Cc2ccnc(N)c2)C(=O)N1C(=O)N[C@@H](C)c1ccc2c(c1)OC(F)(F)O2 [Example 166]
